Data published in ChEMBL document CHEMBL1201862, “PubChem BioAssay data set” (2004).
The source made the active and inactive calls.

How the values were obtained:
[1] = molecular target: T1, DNA repair protein RAD52 homolog (Homo sapiens, UniProt P43351); assay type: functional, biochemical
T1 sequence (P43351 whole entry): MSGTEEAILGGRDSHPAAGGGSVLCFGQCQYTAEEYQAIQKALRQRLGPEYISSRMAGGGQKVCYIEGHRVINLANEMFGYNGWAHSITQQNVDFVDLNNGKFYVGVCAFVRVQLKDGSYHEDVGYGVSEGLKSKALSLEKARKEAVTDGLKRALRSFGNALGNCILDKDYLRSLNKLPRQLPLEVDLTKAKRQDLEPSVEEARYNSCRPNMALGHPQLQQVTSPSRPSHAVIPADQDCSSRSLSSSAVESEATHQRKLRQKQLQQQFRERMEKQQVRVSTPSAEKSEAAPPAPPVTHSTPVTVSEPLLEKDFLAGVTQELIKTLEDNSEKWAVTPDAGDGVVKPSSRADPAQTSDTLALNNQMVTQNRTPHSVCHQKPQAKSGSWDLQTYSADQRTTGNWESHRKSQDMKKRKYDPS

cells [2] = assay type: functional, cell-based
cells [3] = assay type: functional, cell-based; remark: listed apart in the source
[4] = molecular target: T2, Adenosylmethionine-8-amino-7-oxononanoate aminotransferase (Mycobacterium tuberculosis, UniProt P9WQ81); test: Mycobacterium tuberculosis BioA enzyme inhibitor Measured in Biochemical System Using Plate Reader - 2163-02_Inhibitor_Dose_CherryPick_Activity.; assay type: functional, Mycobacterium tuberculosis UT205
T2 sequence (P9WQ81 whole entry): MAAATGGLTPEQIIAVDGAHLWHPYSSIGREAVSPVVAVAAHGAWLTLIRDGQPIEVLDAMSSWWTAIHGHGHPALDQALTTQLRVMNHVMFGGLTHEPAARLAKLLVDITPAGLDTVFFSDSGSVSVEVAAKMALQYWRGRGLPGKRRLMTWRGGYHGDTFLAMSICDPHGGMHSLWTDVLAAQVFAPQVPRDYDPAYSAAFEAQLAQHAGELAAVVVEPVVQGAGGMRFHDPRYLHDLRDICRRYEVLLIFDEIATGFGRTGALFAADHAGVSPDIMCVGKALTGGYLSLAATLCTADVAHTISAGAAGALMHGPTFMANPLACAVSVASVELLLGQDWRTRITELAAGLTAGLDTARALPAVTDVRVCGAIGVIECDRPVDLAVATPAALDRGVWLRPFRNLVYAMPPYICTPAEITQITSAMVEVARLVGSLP

Estrogen receptor = molecular target: T3, Estrogen receptor (Homo sapiens, UniProt P03372);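 also: potency for inhibiting coactivator peptide recruitment to the receptor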
T3 sequence (P03372 whole entry): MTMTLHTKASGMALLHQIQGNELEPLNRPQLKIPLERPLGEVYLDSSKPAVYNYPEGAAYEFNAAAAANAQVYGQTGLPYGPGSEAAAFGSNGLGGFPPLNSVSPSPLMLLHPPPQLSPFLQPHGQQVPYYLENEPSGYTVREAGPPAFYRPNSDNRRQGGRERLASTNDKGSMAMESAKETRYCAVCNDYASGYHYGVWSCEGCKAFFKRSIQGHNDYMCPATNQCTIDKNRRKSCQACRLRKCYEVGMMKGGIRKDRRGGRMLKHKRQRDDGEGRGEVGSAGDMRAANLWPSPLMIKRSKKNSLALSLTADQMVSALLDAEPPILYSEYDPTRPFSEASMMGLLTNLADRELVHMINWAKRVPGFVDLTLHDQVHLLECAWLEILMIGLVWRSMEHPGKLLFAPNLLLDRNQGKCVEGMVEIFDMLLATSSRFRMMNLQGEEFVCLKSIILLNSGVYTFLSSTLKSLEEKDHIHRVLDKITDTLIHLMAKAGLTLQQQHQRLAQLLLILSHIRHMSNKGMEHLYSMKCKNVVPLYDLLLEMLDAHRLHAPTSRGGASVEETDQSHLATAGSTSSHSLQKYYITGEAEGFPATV

[5] = M. tuberculosis H37Rv growth inhibitors, H37Rv strain (AID 1626); assay type: functional
[6] = molecular target: T4, Rac GTPase-activating protein 1 (Homo sapiens, UniProt Q9H0H5); test: MgcRacGAP GTPase-activating activity inhibitors, confirmation, biochemical, ADP Hunter fluorescence, primary and confirmatory (AID 624330); assay type: functional
T4 sequence (Q9H0H5 whole entry): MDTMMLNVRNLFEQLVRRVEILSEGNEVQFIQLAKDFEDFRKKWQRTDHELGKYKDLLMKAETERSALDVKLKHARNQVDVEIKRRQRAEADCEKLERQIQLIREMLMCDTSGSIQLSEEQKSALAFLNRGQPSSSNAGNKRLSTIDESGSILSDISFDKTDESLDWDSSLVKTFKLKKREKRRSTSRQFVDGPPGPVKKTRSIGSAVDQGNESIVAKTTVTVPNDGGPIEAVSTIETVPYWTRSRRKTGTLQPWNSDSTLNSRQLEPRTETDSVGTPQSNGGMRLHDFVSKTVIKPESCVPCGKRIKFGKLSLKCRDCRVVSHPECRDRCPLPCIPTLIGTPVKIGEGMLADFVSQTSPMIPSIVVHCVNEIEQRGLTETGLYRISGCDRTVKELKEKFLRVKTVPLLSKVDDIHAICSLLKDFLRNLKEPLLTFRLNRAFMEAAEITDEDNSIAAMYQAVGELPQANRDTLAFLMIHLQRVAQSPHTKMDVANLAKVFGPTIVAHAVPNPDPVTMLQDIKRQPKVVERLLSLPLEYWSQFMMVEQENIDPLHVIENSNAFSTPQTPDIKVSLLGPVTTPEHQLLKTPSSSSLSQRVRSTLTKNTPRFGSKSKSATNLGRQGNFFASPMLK

cells [7] = assay type: functional, cell-based; remark: listed apart in the source
cells [8] = assay type: functional, cell-based; remark: listed apart in the source

SMILES: N=C(N)Nc1cc2ccccc2c2ccccc12
- AC50 [1]: 7.61 µM (active)
- EC50 (cells [2]): > 29.9 µM (inactive)
- IC50 (cells [3]): > 29.9 µM (inactive)

SMILES: COc1ccc(NC(=O)c2ccc(S(=O)(=O)N(C)C)cc2)cc1OC
- AC50 [4]: 9.66 µM (active)

SMILES: O=C(NNC(=O)c1ccc(SCC2CCCO2)c([N+](=O)[O-])c1)c1ccc(Cl)c([N+](=O)[O-])c1 (stereo unspecified)
- IC50 (Estrogen receptor): 23.3 µM (active)

SMILES: O=C(Cc1cccs1)N1CCN=C1SCc1ccc(Br)cc1
- IC50 [5]: > 100 µM (active)

SMILES: CC(C)c1onc(C(=O)NCCc2ccccc2)c1[N+](=O)[O-]
- EC50 (cells [2]): > 29.9 µM (inactive)
- IC50 (cells [3]): > 29.9 µM (inactive)

SMILES: CC(=O)c1ccc(N2CCN(C(=O)c3ccc4[nH]cnc4c3)CC2)cc1
- AC50 [4]: 8.11 µM (active)

SMILES: COc1ccc(NC(=O)CSc2ncn(-c3ccccc3)n2)cc1Cl
- IC50 [5]: > 100 µM (active)

SMILES: O=C(CNCc1ccco1)Nc1ccc(Oc2ccccc2)cc1
- IC50 [5]: > 100 µM (active)
- IC50 [6]: 122 µM (active)

SMILES: Cc1nnc(N2CCC(C(=O)N3CCCCC3)CC2)c2nn(-c3ccc(Cl)cc3)c(C)c12
- AC50 [4]: 4.14 µM (active)

SMILES: Cn1nnc2cc(C(=O)N3CCC(c4ccccc4)C3)ccc21 (stereo unspecified)
- EC50 (cells [7]): > 350 µM (not active)
- EC50 (cells [8]): > 350 µM (not active)
- AC50 [4]: 4.86 µM (active)
